Molecules are shown by their SMILES.

From US12685315B2, “Herbicidal combination” (UPL do Brasil Industria e Comercio de Insumos Agropecuarios …, priority 2019, dated 2026) come the findings set out here.

One assay concerns Commelina benghalensis. The assay can be described thus: Field trial of triple mixes of amicarbazone, pre-emergence weed control. The assay is classed as in vivo. The following applies: dose g ai/ha: Amicarbazone 75, Mesotrione 38, Ametryn 250, mix AMC + AME + MST 75 + 38 + 250. The method, then: (§1) Field trials were done to evaluate the efficacy and synergism of the triple mixes of amicarbazone with other herbicides for the control of weeds in pre and post-emergence application.
(§2) The composition of the present invention was applied. This test was performed for species of weeds: Grasses namely BRADC=Brachiaria decumbens, CCHEC=Cenchrus echinatus, ELEIN=Eleusine indica, TRCIN=Digitaria insularis and Broadleaves namely IAQGR=Ipomoea grandifolia, EPHHL=Euphorbia heterophylla, COMBE=Commelina benghalensis. Data were collected at various period after application of the composition to the soil and calculated.

In the next assay the test system is Eleusine indica. Briefly: Field trial of triple mixes of amicarbazone, pre and post-emergence weed control. The assay is classed as in vivo. The procedure: as §1, §2
Assay [1] relates to Ipomoea grandifolia (IAQGR). The assay can be described thus: Field trial of triple mixes of amicarbazone, pre-emergence weed control. In kind it is in vivo. The procedure: as §1, §2
A further assay concerns Digitaria insularis. Briefly: Field trial of triple mixes of amicarbazone, post-emergence weed control. In kind it is in vivo. The following applies: dose g ai/ha: Amicarbazone 75, S-metolachlor 300, Atrazine 250, mix 75 + 300 + 250. The procedure: as §1, §2
The test system of assay [2] is Cenchrus echinatus (CCHEC). Briefly: Field trial of triple mixes of amicarbazone, pre and post-emergence weed control. In kind it is in vivo. The procedure: as §1, §2
Assay [3] has as its system Brachiaria decumbens (BRADC). The description is as above. In kind it is in vivo. The procedure:
as §1, §2

In a further assay the test system is Euphorbia heterophylla. The assay can be described thus: Field trial of triple mixes of amicarbazone, pre-emergence weed control. In kind it is in vivo. The following applies: dose g ai/ha: Amicarbazone 250, Sulfentrazone 150, Diuron 250, mix 250 + 150 + 250. The method, then: as §1, §2
Another assay deals with yellow nutsedge. The assay can be described thus: Field trial, post emergence, efficacy on yellow nutsedge (Blacksburg, VA). The assay is classed as in vivo, Cyperus esculentus. To be noted: 2-way mixes 0.5X, 3-way mix 0.33X; for Yellow nut sedge at 29 DAT (Percentage weed cover): dosage: singles 1X; for Yellow nut sedge at 29 DAT (Percentage Control): post emergence, dosage: singles 1 X. The method, then: A field trial was conducted to evaluate effectiveness of the combinations of three active ingredients according to the invention when used post emergence, at different rates, compared to industry standards—stand alone and 2 way mixture molecules for efficacy of yellow nutsedge. The active ingredient combination used in the trial was bentazon+halosulfuron+sulfentrazone. The trial was conducted in Blacksburg, VA and was initiated on June 6 under given protocol. The plots were in fallow area primarily covered with yellow nutsedge and tall fescue and were sprayed at 4 week intervals. (2 applications total). The application dosages of the herbicides, when used in isolation and when used in the combinations were as follows: […]

Where [4] appears, read: Table 8, Post-Emergence, 14 DAA, dose g ai/ha: Amicarbazone 250, Sulfentrazone 150, Diuron 250, mix 250 + 150 + 250.
Setting [5] is: Table 8, Post-Emergence, 21 DAA, dose g ai/ha: Amicarbazone 250, Sulfentrazone 150, Diuron 250, mix 250 + 150 + 250.
Setting [6] is: Table 8, Post-Emergence, 28 DAA, dose g ai/ha: Amicarbazone 250, Sulfentrazone 150, Diuron 250, mix 250 + 150 + 250.
Where [7] appears, read: Table 8, Pre-Emergence, 14 DAA, dose g ai/ha: Amicarbazone 250, Sulfentrazone 150, Diuron 250, mix 250 + 150 + 250.
Where [8] appears, read: Table 8, Pre-Emergence, 21 DAA, dose g ai/ha: Amicarbazone 250, Sulfentrazone 150, Diuron 250, mix 250 + 150 + 250.
[9] abbreviates: Table 8, Pre-Emergence, 28 DAA, dose g ai/ha: Amicarbazone 250, Sulfentrazone 150, Diuron 250, mix 250 + 150 + 250.
The mark [10] stands for this setting: Table 6, Post-Emergence, 21 DAA, dose g ai/ha: Amicarbazone 250, Sulfentrazone 150, Diuron 250, mix 250 + 150 + 250.
The mark [11] stands for this setting: Table 6, Post-Emergence, 28 DAA, dose g ai/ha: Amicarbazone 250, Sulfentrazone 150, Diuron 250, mix 250 + 150 + 250.
The mark [12] stands for this setting: Table 6, Post-Emergence, 35 DAA, dose g ai/ha: Amicarbazone 250, Sulfentrazone 150, Diuron 250, mix 250 + 150 + 250.
The mark [13] stands for this setting: Table 6, Pre-Emergence, 21 DAA, dose g ai/ha: Amicarbazone 250, Sulfentrazone 150, Diuron 250, mix 250 + 150 + 250.
Setting [14] is: Table 6, Pre-Emergence, 28 DAA, dose g ai/ha: Amicarbazone 250, Sulfentrazone 150, Diuron 250, mix 250 + 150 + 250.
[15] abbreviates: Table 6, Pre-Emergence, 35 DAA, dose g ai/ha: Amicarbazone 250, Sulfentrazone 150, Diuron 250, mix 250 + 150 + 250.

Turning to `CCNc1nc(NC(C)C)nc(SC)n1` [Ametryn], the “% Control” value in the assay on Commelina benghalensis (Table 11, 21 DAA) stood at 15.0%; in the assay with Commelina benghalensis (Table 11, 28 DAA), 8.8%; with Commelina benghalensis (Table 11, 35 DAA) it was 2.5%; with Eleusine indica (Table 10, Post-Emergence, 14 DAA, dose g ai/ha: Amicarbazone 75, Mesotrione 38, Ametryn 250, mix AMC + AME + MST 75 + 38 + 250), 53.8%; in the assay on Eleusine indica (Table 10, Post-Emergence, 21 DAA, dose g ai/ha: Amicarbazone 75, Mesotrione 38, Ametryn 250, mix AMC + AME + MST 75 + 38 + 250) it was 27.5%; in the assay on Eleusine indica (Table 10, Post-Emergence, 28 DAA, dose g ai/ha: Amicarbazone 75, Mesotrione 38, Ametryn 250, mix AMC + AME + MST 75 + 38 + 250) it was 22.5%. The “% Control” value in the assay on Eleusine indica (Table 10, Pre-Emergence, 14 DAA, dose g ai/ha: Amicarbazone 75, Mesotrione 38, Ametryn 250, mix AMC + AME + MST 75 + 38 + 250) worked out at 51.3%; in the assay with Eleusine indica (Table 10, Pre-Emergence, 21 DAA, dose g ai/ha: Amicarbazone 75, Mesotrione 38, Ametryn 250, mix AMC + AME + MST 75 + 38 + 250), 42.5%; with Eleusine indica (Table 10, Pre-Emergence, 28 DAA, dose g ai/ha: Amicarbazone 75, Mesotrione 38, Ametryn 250, mix AMC + AME + MST 75 + 38 + 250) it was 35.0%.
With `CCNc1nc(Cl)nc(NC(C)C)n1` [Atrazine], the “% Control” value in assay [1] (Table 3, 14 DAA, dose g ai/ha: Amicarbazone 75, Isoxaflutole 15, Atrazine 250, mix 75 + 15 + 250) is 0.0%; in assay [1] (Table 3, 21 DAA, dose g ai/ha: Amicarbazone 75, Isoxaflutole 15, Atrazine 250, mix 75 + 15 + 250) it was 0.0%; in assay [1] (Table 3, 28 DAA, dose g ai/ha: Amicarbazone 75, Isoxaflutole 15, Atrazine 250, mix 75 + 15 + 250), 0.0%; in the assay on Digitaria insularis (Table 9, 21 DAA), 21.3%; with Digitaria insularis (Table 9, 28 DAA), 13.8%; in the assay on Digitaria insularis (Table 9, 35 DAA) it was 7.5%. The “% Control” value amounted to 47.5% in assay [2] (Table 2, Post-Emergence, 7 DAA, dose g ai/ha: Amicarbazone 75, Isoxaflutole 15, Atrazine 250, mix 75 + 15 + 250); 26.3% in assay [2] (Table 2, Post-Emergence, 28 DAA, dose g ai/ha: Amicarbazone 75, Isoxaflutole 15, Atrazine 250, mix 75 + 15 + 250); 23.8% in assay [2] (Table 2, Post-Emergence, 35 DAA, dose g ai/ha: Amicarbazone 75, Isoxaflutole 15, Atrazine 250, mix 75 + 15 + 250); 37.5% in assay [3] (Table 1, Post-Emergence, 7 DAA, dose g ai/ha: Amicarbazone 75, Isoxaflutole 15, Atrazine 250, mix 75 + 15 + 250); 21.3% in assay [3] (Table 1, Post-Emergence, 21 DAA, dose g ai/ha: Amicarbazone 75, Isoxaflutole 15, Atrazine 250, mix 75 + 15 + 250); 23.8% in assay [3] (Table 1, Post-Emergence, 28 DAA, dose g ai/ha: Amicarbazone 75, Isoxaflutole 15, Atrazine 250, mix 75 + 15 + 250). In addition, the “% Control” value in assay [3] (Table 1, Pre-Emergence, 7 DAA, dose g ai/ha: Amicarbazone 75, Isoxaflutole 15, Atrazine 250, mix 75 + 15 + 250) came to 0.0%; in assay [3] (Table 1, Pre-Emergence, 21 DAA, dose g ai/ha: Amicarbazone 75, Isoxaflutole 15, Atrazine 250, mix 75 + 15 + 250), 0.0%; in assay [3] (Table 1, Pre-Emergence, 28 DAA, dose g ai/ha: Amicarbazone 75, Isoxaflutole 15, Atrazine 250, mix 75 + 15 + 250), 0.0%.
Consider `CN(C)C(=O)Nc1ccc(Cl)c(Cl)c1` [Diuron], for which the “% Control” value is recorded as 0.0% with Euphorbia heterophylla (Table 7, 7 DAA); 0.0% with Euphorbia heterophylla (Table 7, 14 DAA); 0.0% in the assay on Euphorbia heterophylla (Table 7, 21 DAA); 10.0% in assay [1] (Table 4, 7 DAA, dose g ai/ha: Amicarbazone 250, Clomazone 250, Diuron 250, mix 250 + 250 + 250); 0.0% in assay [1] (Table 4, 14 DAA, dose g ai/ha: Amicarbazone 250, Clomazone 250, Diuron 250, mix 250 + 250 + 250); 0.0% in assay [1] (Table 4, 28 DAA, dose g ai/ha: Amicarbazone 250, Clomazone 250, Diuron 250, mix 250 + 250 + 250). Besides, the “% Control” value in the assay with Eleusine indica (setting [4]) is 53.8%; in the assay with Eleusine indica (setting [5]), 35.0%; with Eleusine indica (setting [6]) it was 30.0%; in the assay on Eleusine indica (setting [7]) it was 0.0%; in the assay with Eleusine indica (setting [8]), 0.0%; with Eleusine indica (setting [9]) it was 0.0%. For the same molecule, the “% Control” value is listed as 38.8% in assay [2] (setting [10]); 35.0% in assay [2] (setting [11]); 28.8% in assay [2] (setting [12]); 0.0% in assay [2] (setting [13]); 0.0% in assay [2] (setting [14]); 0.0% in assay [2] (setting [15]). The “% Control” value in assay [3] (Table 5, Post-Emergence, 21 DAA, dose g ai/ha: Amicarbazone 250, Clomazone 250, Diuron 250, mix 250 + 250 + 250) was determined as 81.3%; in assay [3] (Table 5, Post-Emergence, 28 DAA, dose g ai/ha: Amicarbazone 250, Clomazone 250, Diuron 250, mix 250 + 250 + 250), 75.0%; in assay [3] (Table 5, Post-Emergence, 35 DAA, dose g ai/ha: Amicarbazone 250, Clomazone 250, Diuron 250, mix 250 + 250 + 250), 76.3%; in assay [3] (Table 5, Pre-Emergence, 21 DAA, dose g ai/ha: Amicarbazone 250, Clomazone 250, Diuron 250, mix 250 + 250 + 250), 0.0%; in assay [3] (Table 5, Pre-Emergence, 28 DAA, dose g ai/ha: Amicarbazone 250, Clomazone 250, Diuron 250, mix 250 + 250 + 250), 0.0%; in assay [3] (Table 5, Pre-Emergence, 35 DAA, dose g ai/ha: Amicarbazone 250, Clomazone 250, Diuron 250, mix 250 + 250 + 250), 0.0%.
Turning to `CCc1cccc(C)c1N(C(=O)CCl)[C@@H](C)COC` [S-metolachlor], the “% Control” value in the assay on Digitaria insularis (Table 9, 21 DAA) came out at 0.0%; in the assay on Digitaria insularis (Table 9, 28 DAA) it was 0.0%; in the assay with Digitaria insularis (Table 9, 35 DAA), 0.0%.
As for `Cc1nn(-c2cc(NS(C)(=O)=O)c(Cl)cc2Cl)c(=O)n1C(F)F` [Sulfentrazone], the “% Control” value is 0.0% in the assay with Euphorbia heterophylla (Table 7, 7 DAA); 10.0% in the assay on Euphorbia heterophylla (Table 7, 14 DAA); 17.5% in the assay with Euphorbia heterophylla (Table 7, 21 DAA); 70.0% with Eleusine indica (setting [4]); 63.8% in the assay on Eleusine indica (setting [5]); 55.0% in the assay on Eleusine indica (setting [6]). The “% Control” value in the assay on Eleusine indica (setting [7]) stood at 93.3%; with Eleusine indica (setting [8]) it was 96.5%; in the assay with Eleusine indica (setting [9]), 92.0%; in assay [2] (setting [10]) it was 86.3%; in assay [2] (setting [11]), 83.8%; in assay [2] (setting [12]), 82.5%. For the same molecule, the figures for the “% Control” value in assay [2] (setting [13]), in assay [2] (setting [14]) and in assay [2] (setting [15]) were 17.5%, 13.8% and 9.5%, respectively. The “Yellow nut sedge at 29 DAT (Percentage weed cover)” value in the assay on yellow nutsedge (05/07, untreated 59) was found to be 9%; with yellow nutsedge (13/06, untreated 50) it was 44%; with yellow nutsedge (20/6, untreated 49), 11%. The “Yellow nut sedge at 29 DAT (Percentage Control)” value is 75% with yellow nutsedge (05/07), 58% with yellow nutsedge (13/06) and 73% with yellow nutsedge (20/6).
